Earlier results, collected in patent US6403120B1 (Wyeth, priority 1996, dated 2002).

Details: plural daily dosing regimen

COc1ccc(C(CN(C)C)C2(O)CCCCC2)cc1.Cl (centres unmarked) [venlafaxine hydrochloride, 1-[2-(dimethylamino)-1-(4methoxyphenyl)ethyl]cyclohexanol hydrochloride]
patients experiencing nausea: about forty five | patients with vomiting: about seventeen
